Assays:
[1] = biological target: T1, 5-hydroxytryptamine receptor 2A (Homo sapiens, UniProt P28223); test: Displacement of [3H]ketanserin from postmortem human brain membrane homogenate 5-HT2A receptor incubated for 120 mins by microbeta liquid scintillation counter analysis; format: cell membranes
[2] = biological target: T1, 5-hydroxytryptamine receptor 2A; test: Inverse agonist activity at human postmortem human brain membrane 5-HT2A receptor assessed as […] in [35S]GTPgammaS binding by liquid scintillation spectrometry analysis; format: functional, cell membranes
[3] = biological target: T1, 5-hydroxytryptamine receptor 2A; test: Displacement of [3H]ketanserin from human 5-HT2A receptor incubated for 120 mins by microbeta liquid scintillation counter analysis
[4] = biological target: T1, 5-hydroxytryptamine receptor 2A; test: Inverse agonist activity at human 5-HT2A receptor assessed as […] in [35S]GTPgammaS binding by liquid scintillation spectrometry analysis; format: functional
[5] = biological target: T1, 5-hydroxytryptamine receptor 2A; test: Inverse agonist activity at human prefrontal cortex 5-HT2A receptor assessed as […] in [35S]GTPgammaS binding by liquid scintillation spectrometry analysis; format: functional, tissue-based
[6] = biological target: T1, 5-hydroxytryptamine receptor 2A; test: Inverse agonist activity at human 5-HT2A receptor expressed in cell membrane assessed as […] in [35S]GTPgammaS binding by liquid scintillation spectrometry analysis; format: functional, cell membranes
[7] = biological target: T1, 5-hydroxytryptamine receptor 2A; test: Displacement of [3H]ketanserin from human brain cortex 5-HT2A receptor by Cheng-Prusoff equation analysis; format: tissue-based
[8] = biological target: T1, 5-hydroxytryptamine receptor 2A; test: Displacement of [3H]ketanserin human recombinant 5-HT2A receptor by Cheng-Prusoff equation analysis

T1 sequence (P28223 whole entry): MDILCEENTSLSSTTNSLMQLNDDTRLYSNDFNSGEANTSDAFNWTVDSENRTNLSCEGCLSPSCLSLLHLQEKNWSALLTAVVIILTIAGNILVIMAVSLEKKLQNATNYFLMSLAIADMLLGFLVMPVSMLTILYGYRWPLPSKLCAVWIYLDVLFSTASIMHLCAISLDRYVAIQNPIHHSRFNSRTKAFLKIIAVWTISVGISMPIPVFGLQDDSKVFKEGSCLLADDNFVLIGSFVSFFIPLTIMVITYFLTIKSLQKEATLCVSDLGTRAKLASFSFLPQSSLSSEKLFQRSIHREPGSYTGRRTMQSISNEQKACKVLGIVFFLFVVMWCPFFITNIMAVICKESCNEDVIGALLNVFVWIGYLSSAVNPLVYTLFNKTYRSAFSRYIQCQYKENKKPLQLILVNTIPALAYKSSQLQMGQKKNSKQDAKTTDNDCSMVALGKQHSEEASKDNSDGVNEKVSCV

Row | Ki [1] [nM] | IC50 [2] [nM] | Ki [3] [nM] | IC50 [4] [nM] | IC50 [5] [nM] | IC50 [6] [nM] | Ki [7] [nM] | Ki [8] [nM] | SMILES
1 | 5.01 | 0.316 | 0.158 | 0.158 | 12.6 | 79.4 | – | – | CC1COc2ccc(CNC(=O)N(Cc3ccc(F)cc3)C3CCN(C)CC3)cc21 (stereo not given)
2 | 0.501 | 0.251 | 0.0316 | 0.251 | 12.6 | 79.4 | – | – | CC1Cc2cc(CNC(=O)N(Cc3ccc(F)cc3)C3CCN(C)CC3)ccc2O1 (stereo not given)
3 | 0.0501 | 0.0501 | 0.00251 | 0.0631 | 12.6 | 79.4 | 0.06 | 0.003 | CN1CCC(N(Cc2ccc(F)cc2)C(=O)NCc2ccc3c(c2)CC(C)(C)O3)CC1
